We go through 17 compounds from patent US20170355705A1 (GlaxoSmithKline Intellectual Property (No.2) Limited, priority 2014, published 2017).

The target in the experiment is T1, SIRT1 (Homo sapiens, UniProt Q96EB6).
T1 sequence (Q96EB6 1-747): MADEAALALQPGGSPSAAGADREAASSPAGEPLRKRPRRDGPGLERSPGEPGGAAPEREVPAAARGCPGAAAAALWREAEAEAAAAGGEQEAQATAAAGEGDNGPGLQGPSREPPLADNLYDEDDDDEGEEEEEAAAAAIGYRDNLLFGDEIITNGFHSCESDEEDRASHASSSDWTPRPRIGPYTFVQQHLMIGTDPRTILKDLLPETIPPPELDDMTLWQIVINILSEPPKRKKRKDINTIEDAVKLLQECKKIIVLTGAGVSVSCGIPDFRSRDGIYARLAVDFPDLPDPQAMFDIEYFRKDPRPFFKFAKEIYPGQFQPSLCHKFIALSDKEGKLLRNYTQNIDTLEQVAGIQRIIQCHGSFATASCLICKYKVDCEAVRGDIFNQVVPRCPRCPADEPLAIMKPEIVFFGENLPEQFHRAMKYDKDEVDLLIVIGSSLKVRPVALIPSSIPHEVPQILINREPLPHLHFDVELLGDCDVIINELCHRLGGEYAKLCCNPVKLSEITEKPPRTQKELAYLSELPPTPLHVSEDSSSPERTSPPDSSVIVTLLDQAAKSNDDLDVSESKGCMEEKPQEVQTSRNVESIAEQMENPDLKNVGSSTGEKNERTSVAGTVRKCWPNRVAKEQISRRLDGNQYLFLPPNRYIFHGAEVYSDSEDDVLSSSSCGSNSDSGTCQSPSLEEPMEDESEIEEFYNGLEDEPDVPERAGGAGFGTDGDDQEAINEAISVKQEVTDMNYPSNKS
Nature of the experiment: Trp mass spectrometry assay of SIRT1 activity (EC1.5, percent maximum activation). The settings on record: Trp mass spectrometry assay; for TRP Activity (EC1.5): EC1.5 = concentration giving 150% activation of SIRT1; for TRP MAX RESP (percent maximum fold activation): percent maximum activation of SIRT1. The format is biochemical. An outline of the steps:
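N-terminal His-tagged human SIRT1, expressed in BL21(DE3) and purified, was incubated 25 min with an acetylated Trp peptide and NAD plus test compound at varying concentrations, then quenched with formic acid. OAADPR or deacetylated peptide was quantified by mass spectrometry versus compound-free control; EC1.5 is the concentration giving 50% activity increase, with percent maximum activation.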

On to `O=C(Nc1cccc(OC[C@H](O)CO)n1)N1c2nc(-c3cccc(C(F)(F)F)c3)c(Cl)cc2N2CC[C@H]1C2` [Example 56, (4S)-8-chloro-N-(6-((R)-2,3-dihydroxypropoxy)pyridin-2-yl)-7-(3-(trifluoromethyl)phenyl)-3,4-dihydro-1,4-methanopyrido[2,3-b][1,4]diazepine-5(2H)-carboxamide], for which the “TRP Activity (EC1.5)” value is listed as “A (EC1.5<1 μM)” and the “TRP MAX RESP (percent maximum fold activation)” value was “A (Fold activation ≧150%)”.
For `O=C(Nc1nccc(OC[C@@H](O)CO)n1)N1c2nc(-c3cccc(C(F)(F)F)c3)c(Cl)cc2N2CC[C@H]1C2` [Example 57, (4S)-8-chloro-N-(4-((S)-2,3-dihydroxypropoxy)pyrimidin-2-yl)-7-(3-(trifluoromethyl)phenyl)-3,4-dihydro-1,4-methanopyrido[2,3-b][1,4]diazepine-5(2H)-carboxamide], in that order: “A (EC1.5<1 μM)” and “A (Fold activation ≧150%)”.
For `Cl.O=C(Nc1ccnc(OC[C@@H](O)CO)c1)N1c2nc(-c3cccc(C(F)(F)F)c3)c(Cl)cc2N2CC[C@H]1C2` [Example 58, (4S)-8-chloro-N-(2-((S)-2,3-dihydroxypropoxy)pyridin-4-yl)-7-(3-(trifluoromethyl)phenyl)-3,4-dihydro-1,4-methanopyrido[2,3-b][1,4]diazepine-5(2H)-carboxamide, Hydrochloride], in that order: “A (EC1.5<1 μM)” and “A (Fold activation ≧150%)”.
The corresponding values for `CC(C)(O)CCOc1cccc(NC(=O)N2c3nc(-c4cccc(C(F)(F)F)c4)c(Cl)cc3N3CC[C@H]2C3)n1` [Example 59, (4S)-8-chloro-N-(6-(3-hydroxy-3-methylbutoxy)pyridin-2-yl)-7-(3-(trifluoromethyl)phenyl)-3,4-dihydro-1,4-methanopyrido[2,3-b][1,4]diazepine-5(2H)-carboxamide] are “B (EC1.5 1-25 μM)” and “A (Fold activation ≧150%)”.
Take `Cl.O=C(Nc1ccnc(OC[C@H](O)CO)c1)N1c2nc(-c3cccc(C(F)(F)F)c3)c(Cl)cc2N2CC[C@H]1C2` [Example 60, (4S)-8-chloro-N-(2-((R)-2,3-dihydroxypropoxy)pyridin-4-yl)-7-(3-(trifluoromethyl)phenyl)-3,4-dihydro-1,4-methanopyrido[2,3-b][1,4]diazepine-5(2H)-carboxamide, Hydrochloride]: the “TRP Activity (EC1.5)” value is “A (EC1.5<1 μM)” and the “TRP MAX RESP (percent maximum fold activation)” value is “A (Fold activation ≧150%)”.
For `O=C(Nc1ccnc(OC[C@@H](O)CO)c1)N1c2nc(-c3cccc(C(F)(F)F)c3)c(Cl)cc2N2CC[C@H]1C2` [Example 61, (4S)-8-chloro-N-(2-((S)-2,3-dihydroxypropoxy)pyridin-4-yl)-7-(3-(trifluoromethyl)phenyl)-3,4-dihydro-1,4-methanopyrido[2,3-b][1,4]diazepine-5(2H)-carboxamide], in that order: “A (EC1.5<1 μM)” and “A (Fold activation ≧150%)”.
The corresponding values for `Cl.O=C(Nc1cncc(OC[C@H](O)CO)n1)N1c2nc(-c3cccc(C(F)(F)F)c3)c(Cl)cc2N2CC[C@H]1C2` [Example 62, (4S)-8-chloro-N-(6-((R)-2,3-dihydroxypropoxy)pyrazin-2-yl)-7-(3-(trifluoromethyl)phenyl)-3,4-dihydro-1,4-methanopyrido[2,3-b][1,4]diazepine-5(2H)-carboxamide, Hydrochloride] are “A (EC1.5<1 μM)” and “A (Fold activation ≧150%)”.
With `O=C(Nc1cc(OC[C@@H](O)CO)ccn1)N1c2nc(-c3cccc(C(F)(F)F)c3)c(Cl)cc2N2CC[C@H]1C2` [Example 63, (4S)-8-chloro-N-(4-((S)-2,3-dihydroxypropoxy)pyridin-2-yl)-7-(3-(trifluoromethyl)phenyl)-3,4-dihydro-1,4-methanopyrido[2,3-b][1,4]diazepine-5(2H)-carboxamide], the “TRP Activity (EC1.5)” value was “B (EC1.5 1-25 μM)” and the “TRP MAX RESP (percent maximum fold activation)” value is listed as “A (Fold activation ≧150%)”.
Consider `Cl.O=C(Nc1cc(OC[C@@H](O)CO)ccn1)N1c2nc(-c3cccc(C(F)(F)F)c3)c(Cl)cc2N2CC[C@H]1C2` [Example 64, (4S)-8-chloro-N-(4-((S)-2,3-dihydroxypropoxy)pyridin-2-yl)-7-(3-(trifluoromethyl)phenyl)-3,4-dihydro-1,4-methanopyrido[2,3-b][1,4]diazepine-5(2H)-carboxamide, Hydrochloride], for which the “TRP Activity (EC1.5)” value was “B (EC1.5 1-25 μM)” and the “TRP MAX RESP (percent maximum fold activation)” value is “A (Fold activation ≧150%)”.
The corresponding values for `O=C(Nc1cncc(OC[C@H](O)CO)n1)N1c2nc(-c3cccc(C(F)(F)F)c3)c(Cl)cc2N2CC[C@H]1C2` [Example 65, (4S)-8-chloro-N-(6-((R)-2,3-dihydroxypropoxy)pyrazin-2-yl)-7-(3-(trifluoromethyl)phenyl)-3,4-dihydro-1,4-methanopyrido[2,3-b][1,4]diazepine-5(2H)-carboxamide] are “A (EC1.5<1 μM)” and “A (Fold activation ≧150%)”.
In the case of `O=C(Nc1cnc(OC[C@H](O)CO)nc1)N1c2nc(-c3cccc(C(F)(F)F)c3)c(Cl)cc2N2CC[C@H]1C2` [Example 66, (4S)-8-chloro-N-(2-((R)-2,3-dihydroxypropoxy)pyrimidin-5-yl)-7-(3-(trifluoromethyl)phenyl)-3,4-dihydro-1,4-methanopyrido[2,3-b][1,4]diazepine-5(2H)-carboxamide], the “TRP Activity (EC1.5)” value is “B (EC1.5 1-25 μM)” and the “TRP MAX RESP (percent maximum fold activation)” value is recorded as “A (Fold activation ≧150%)”.
The corresponding values for `O=C(Nc1cccc(OCCCO)n1)N1c2nc(-c3cccc(C(F)(F)F)c3)c(Cl)cc2N2CC[C@H]1C2` [Example 67, (4S)-8-chloro-N-(6-(3-hydroxypropoxy)pyridin-2-yl)-7-(3-(trifluoromethyl)phenyl)-3,4-dihydro-1,4-methanopyrido[2,3-b][1,4]diazepine-5(2H)-carboxamide] are “A (EC1.5<1 μM)” and “A (Fold activation ≧150%)”.
As to `Cl.O=C(Nc1cccc(OC[C@@H](O)CO)n1)N1c2nc(-c3cccc(C(F)(F)F)c3)c(Cl)cc2N2CC[C@H]1C2` [Example 68, (4S)-8-chloro-N-(6-((S)-2,3-dihydroxypropoxy)pyridin-2-yl)-7-(3-(trifluoromethyl)phenyl)-3,4-dihydro-1,4-methanopyrido[2,3-b][1,4]diazepine-5(2H)-carboxamide Hydrochloride], the “TRP Activity (EC1.5)” value was “A (EC1.5<1 μM)” and the “TRP MAX RESP (percent maximum fold activation)” value is given as “A (Fold activation ≧150%)”.
With `O=C(Nc1cncc(OCCO)n1)N1c2nc(-c3cccc(C(F)(F)F)c3)c(Cl)cc2N2CC[C@H]1C2` [Example 69, (4S)-8-chloro-N-(6-(2-hydroxyethoxy)pyrazin-2-yl)-7-(3-(trifluoromethyl)phenyl)-3,4-dihydro-1,4-methanopyrido[2,3-b][1,4]diazepine-5(2H)-carboxamide], the “TRP Activity (EC1.5)” value is recorded as “A (EC1.5<1 μM)” and the “TRP MAX RESP (percent maximum fold activation)” value is listed as “A (Fold activation ≧150%)”.
For `O=C(Nc1ccnc(OCCO)n1)N1c2nc(-c3cccc(C(F)(F)F)c3)c(Cl)cc2N2CC[C@H]1C2` [Example 70, (4S)-8-chloro-N-(2-(2-hydroxyethoxy)pyrimidin-4-yl)-7-(3-(trifluoromethyl)phenyl)-3,4-dihydro-1,4-methanopyrido[2,3-b][1,4]diazepine-5(2H)-carboxamide], in that order: “A (EC1.5<1 μM)” and “A (Fold activation ≧150%)”.
The corresponding values for `O=C(Nc1cccc(OC[C@@H](O)CO)n1)N1c2nc(-c3cccc(C(F)(F)F)c3)c(Cl)cc2N2CC[C@H]1C2` [Example 71, (4S)-8-chloro-N-(6-((S)-2,3-dihydroxypropoxy)pyridin-2-yl)-7-(3-(trifluoromethyl)phenyl)-3,4-dihydro-1,4-methanopyrido[2,3-b][1,4]diazepine-5(2H)-carboxamide] are “A (EC1.5<1 μM)” and “A (Fold activation ≧150%)”.
Regarding `O=C(Nc1ccc(OC[C@@H](O)CO)nc1)N1c2nc(-c3cccc(C(F)(F)F)c3)c(Cl)cc2N2CC[C@H]1C2` [Example 72, (4S)-8-chloro-N-(6-((S)-2,3-dihydroxypropoxy)pyridin-3-yl)-7-(3-(trifluoromethyl)phenyl)-3,4-dihydro-1,4-methanopyrido[2,3-b][1,4]diazepine-5(2H)-carboxamide], the “TRP Activity (EC1.5)” value is listed as “A (EC1.5<1 μM)” and the “TRP MAX RESP (percent maximum fold activation)” value is reported as “A (Fold activation ≧150%)”.
